Results as given in patent US20030143172A1, “Hair treatment agent” (priority 2001, published 2003).

What was measured:
[1] = Dechlorinating ability (iodometric titration of free chlorine in chlorine water); conditions: initial free chlorine 0.43
Protocol: To chlorine water having a previously determined free chlorine concentration, APS or AG was added and the amount of free chlorine decreased was measured. The free chlorine amount was measured by iodometric titiration.
To each of three Erlenmeyer flasks with a stopper, 10 ml of chlorine water having a known free chlorine concentration was added and thereto, APS or AG in an equimolar amount, 1.5 times molar amount or 2 times molar amount to the free chlorine in the solution was added and stirred. After 5 minutes, 10 minutes, 15 minutes and 20 minutes, the amount of free chlorine was titrated.
In the titration, 2 ml of each reaction solution was charged into another Erlenmeyer flask with a stopper, 50 ml of distilled water was added thereto, 1.0 g of potassium iodide and 1 ml of a 0.2% starch solution were further added and after stirring, a 0.1 N sodium thiosulfate standard solution was added dropwise. The point where purple color was faded out was designated as a final point. From the amount of sodium thiosulfate added dropwise at this time, the amount of free chlorine was calculated.

[2] = Ability of preventing decolorization of melanin pigment caused by chlorine (absorbance at 400 nm); set-up: species or system sepia officinailis; conditions: for 3 Hours After Addition abs / 6 Hours After Addition abs / Before Addition abs: 400 nm; for 3 Hours After Addition abs / Residual Ratio, 3H: 3 hours after addition of chlorine water; for 6 Hours After Addition abs / Residual Ratio, 6H: 6 hours after addition of chlorine water; for Before Addition abs: before addition of chlorine water (baseline)
Protocol: A melanin pigment (sepia officinailis) was added to a 2 N aqueous sodium hydroxide solution and dissolved under heating at 80° C. for 2 hours to adjust the melanin pigment content in the solution to 50 ppm. This melanin pigment solution was divided into 5 vessels and 5 kinds in total of sample solutions were prepared, namely, solutions adjusted to an APS concentration of 10 mM and 50 mM, solutions adjusted to an AG concentration of 10 mM and 50 mM, and a control having added thereto neither APS nor AG. Then, 4 ml of each solution was sampled in a sampling bottle and 0.5 ml of commercially available chlorine water (free chlorine concentration: about 0.43%) was added to each sampling bottle. As a blank, a melanin pigment solution was used. The prevention of melanin decolorization was evaluated by measuring the absorbance (abs) at 400 nm using a spectrophotometer when 3 hours (3 H) and 6 hours (6H) were passed after the addition of chlorine water.

[3] = Ability of preventing hair damage caused by chlorine (color difference ΔE of hair); set-up: species or system human; conditions: aqueous 10 mM solution, chlorine water, one hour
Protocol: 120 ml of an aqueous 10 mM APS solution, 120 ml of an aqueous 10 mM AG solution and 120 ml of purified water each was poured into two bottles with a screw opening. In the aqueous 10 mM APS solution, the aqueous 10 mM AG solution or the purified water, hair of an adult and hair of a child, which were previously subjected to the measurement of color (L*a*b color specification) by a spectrocolorimeter (Macbeth Gretag APM50), each was immersed in an amount of 70 to 80 mg while stirring. To each solution in which the hair was immersed, 15 ml of a commercially available chlorine water (concentration of free chlorine: about 0.43%) was added. After stirring for one hour, the hair was filtered, washed with water and air-dried. The resulting hairs were measured on the color (L*a*b* color specification) and from the values obtained, the color difference ΔE value was calculated.

[4] = Hydroxy radical-scavenging ability (ESR-spin trap method); assay type: biochemical
Protocol: Using “ESR-spin trap method”, the radical scavenging in percentage of each of ascorbyl 2-phosphate sodium salt (APS), ascorbyl 2-phosphate magnesium salt (APM) and ascorbyl 2-glucoside (AG) was measured. The radicals were chemically generated.
10 μl of 1M HEPES buffer solution (pH: 7.2), 10 μl of 1 mM diethylenetriaminepentaacetic acid, each of 20 μl of APS, APM or AG solution, 100 μl of purified water, 40 μl of 40 mM 2,2′-azobis(2-methylpropionamidine)dihydrochloride and 20 μl of 0.5 M 5,5-dimethyl-1-pyrroline-N-oxide were added and mixed. The obtained solutions were sequentially enclosed into flat cells for ESR and the cells were placed in an ESR apparatus (“JES-RE1X”, manufactured by JEOL Ltd.) and subjected to the measurement of hydroxy radical-scavenging ability. The hydroxy radical-scavenging ability is shown by S/M value (area value of spectrum/area value of manganese marker) and the scavenging ratio is shown by percentage (%).

[5] = Ability of preventing hair damage caused by sunlight (weather meter irradiation, ΔE of hair); conditions: pH 7.2, irradiation 24 hours
Protocol: An APS solution, an AG solution, which were each adjusted to a pH of 7.2 and a concentration of 10 mM or 100 mM, and purified water (control) each was charged into a polyethylene bag and in respective bags, from 70 to 80 g of hair previously measured on the color (L*a*b* color specification) by a spectrocolorimeter (Macbeth Gretag APM50) was enclosed. After the immersion for about 2 hours, light was irradiated thereon using a weather meter (high energy xenon weather meter, manufactured by Suga Shikenki K. K.). The irradiation time was 24 hours and the integrated light intensity was about 10,000 kj/m^2. The hair after the irradiation was washed with purified water, air-dried and then subjected to the measurement of color (L*a*b* color specification) and from the values obtained, the color difference ΔE value was calculated.

[6] = molar ratio additive:free chlorine 1.0:1.0
[7] = molar ratio additive:free chlorine 1.5:1.0
[8] = molar ratio additive:free chlorine 2.0:1.0

Structure (SMILES) | Free chlorine After 5 Minutes [1, 6] [%] | Free chlorine After 10 Minutes [1, 6] [%] | Free chlorine After 15 Minutes [1, 6] [%] | Free chlorine After 20 Minutes [1, 6] [%] | Free chlorine After 5 Minutes [1, 7] [%] | Free chlorine After 10 Minutes [1, 7] [%] | Free chlorine After 15 Minutes [1, 7] [%] | Free chlorine After 20 Minutes [1, 7] [%] | Free chlorine After 5 Minutes [1, 8] [%] | Free chlorine After 10 Minutes [1, 8] [%] | Radical scavenging, % (S/M relative to 0 mM = 100.0) ([4]; concentration 0.01 mM) [%] | S/M (area value of spectrum/area value of manganese marker) ([4]; concentration 0.01 mM) | Radical scavenging, % (S/M relative to 0 mM = 100.0) ([4]; concentration 0.03 mM) [%] | S/M (area value of spectrum/area value of manganese marker) ([4]; concentration 0.03 mM) | Radical scavenging, % (S/M relative to 0 mM = 100.0) ([4]; concentration 0.1 mM) [%] | S/M (area value of spectrum/area value of manganese marker) ([4]; concentration 0.1 mM) | Radical scavenging, % (S/M relative to 0 mM = 100.0) ([4]; concentration 0.3 mM) [%] | S/M (area value of spectrum/area value of manganese marker) ([4]; concentration 0.3 mM) | Radical scavenging, % (S/M relative to 0 mM = 100.0) ([4]; concentration 1 mM) [%] | S/M (area value of spectrum/area value of manganese marker) ([4]; concentration 1 mM) | further results
O=C1O[C@H]([C@@H](O)CO)C([O-])=C1OP(=O)([O-])[O-].[Na+].[Na+].[Na+] [APS, ascorbyl 2-phosphate sodium salt] | 0.02 | 0.012 | 0.008 | 0 | 0.005 | 0 | 0 | 0 | 0 | 0 | 103.1 | 0.67 | 104.6 | 0.68 | 78.5 | 0.51 | 53.8 | 0.35 | 16.9 | 0.11 | Free chlorine After 15 Minutes [1, 8]: 0%; Free chlorine After 20 Minutes [1, 8]: 0%; 3 Hours After Addition abs ([2]; additive 10 mM): 0.449 abs; 6 Hours After Addition abs ([2]; additive 10 mM): 0.453 abs; Before Addition abs ([2]; additive 10 mM): 0.577 abs; Residual Ratio, 3H ([2]; additive 10 mM): 0.773; Residual Ratio, 6H ([2]; additive 10 mM): 0.785; 3 Hours After Addition abs ([2]; additive 50 mM): 0.545 abs; 6 Hours After Addition abs ([2]; additive 50 mM): 0.505 abs; Before Addition abs ([2]; additive 50 mM): 0.592 abs; Residual Ratio, 3H ([2]; additive 50 mM): 0.921; Residual Ratio, 6H ([2]; additive 50 mM): 0.853; ΔE Value of Hair Treated With Chlorine ([3]; hair of Adult person): 0.4; ΔE Value of Hair Treated With Chlorine ([3]; hair of child): 0.5; ΔE Value of Weather Meter Treated-hair ([5]; concentration 10 mM): 14.36; ΔE Value of Weather Meter Treated-hair ([5]; concentration 100 mM): 4.54
O=C1O[C@H]([C@@H](O)CO)C(O)=C1O[C@H]1O[C@H](CO)[C@@H](O)[C@H](O)[C@H]1O [AG, ascorbyl 2-glucoside] | 0.033 | 0.02 | 0.01 | 0 | 0.008 | 0 | 0 | 0 | 0 | 0 | 98.5 | 0.64 | 89.2 | 0.58 | 98.5 | 0.64 | 90.8 | 0.59 | 61.5 | 0.40 | Free chlorine After 15 Minutes [1, 8]: 0%; Free chlorine After 20 Minutes [1, 8]: 0%; 3 Hours After Addition abs ([2]; additive 10 mM): 0.458 abs; 6 Hours After Addition abs ([2]; additive 10 mM): 0.447 abs; Before Addition abs ([2]; additive 10 mM): 0.575 abs; Residual Ratio, 3H ([2]; additive 10 mM): 0.797; Residual Ratio, 6H ([2]; additive 10 mM): 0.777; 3 Hours After Addition abs ([2]; additive 50 mM): 0.553 abs; 6 Hours After Addition abs ([2]; additive 50 mM): 0.540 abs; Before Addition abs ([2]; additive 50 mM): 0.569 abs; Residual Ratio, 3H ([2]; additive 50 mM): 0.972; Residual Ratio, 6H ([2]; additive 50 mM): 0.949; ΔE Value of Hair Treated With Chlorine ([3]; hair of child): 1.1; ΔE Value of Weather Meter Treated-hair ([5]; concentration 10 mM): 10.72; ΔE Value of Weather Meter Treated-hair ([5]; concentration 100 mM): 6.01
O=C1O[C@H]([C@@H](O)CO)C([O-])=C1OP(=O)([O-])[O-].O=C1O[C@H]([C@@H](O)CO)C([O-])=C1OP(=O)([O-])[O-].[Mg+2].[Mg+2].[Mg+2] [APM, ascorbyl 2-phosphate magnesium salt] | – | – | – | – | – | – | – | – | – | – | 89.2 | 0.58 | 92.3 | 0.60 | 81.5 | 0.53 | 64.6 | 0.42 | 18.5 | 0.12 | –
